Among the data in PubChem BioAssay (NCI) are GI50 and TGI values, retold here.

Several values for one entry are separate records, joined by “and”; a condition that tells them apart may be missing. Identical values can stand only once.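 Five concentrations, 48 hours, 96-well plates. GI50: concentration for 50% inhibition of growth. Definition used: TGI = concentration required for complete inhibition of growth.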

Common to all, as to test: inhibition of tumour cell growth, NCI panel, 48 h
Experiment [1] concerns NCI-H522 lung.
Experiment [2] concerns OVCAR-3 ovarian.
Experiment [3] concerns MCF7 breast.
Experiment [4] deals with HCC-2998 colon.
The test system of experiment [5] is OVCAR-8 ovarian.
In experiment [6] the test system is MDA-MB-231 breast.
In experiment [7] the test system is SK-MEL-5 melanoma.
Experiment [8] deals with U251 CNS.
The test system of experiment [9] is PC-3 prostate.
The subject of experiment [10] is TK-10 renal.

Consider `O=C(Nc1ccncc1)C(=O)c1cn(S(=O)(=O)c2cccc(Cl)c2)c2ccccc12`, for which the GI50 in experiment [1] is 2.41 µM; in experiment [2], 4.12 µM; in experiment [3], 3.63 µM; in experiment [4], 13.9 µM; in experiment [5], 7.98 µM; in experiment [6], 10.6 µM. Also, the GI50 in [7] is 3.61 µM; in experiment [8] it was 5.78 µM; in experiment [9], 11.8 µM; in experiment [10], 23.5 µM. Also, the TGI was 16.9 µM in experiment [1]; 23.4 µM in experiment [2]; more than 100 µM in [3]; more than 100 µM in experiment [4]; more than 100 µM in experiment [5]; 43.9 µM in [6]. Further, the TGI was 39.5 µM in experiment [7], more than 100 µM in experiment [8], more than 100 µM in experiment [9] and 75.9 µM in experiment [10].

Take `CN(C)c1ccc(/C=C(\C#N)c2cc3ccccc3[nH]2)cc1`: the GI50 in experiment [1] was 0.542 µM; in [2] it was 0.409 µM; in [3], 0.416 µM; in experiment [4], 6.59 µM; in experiment [5] it was 2.35 µM; in experiment [6] it was 1.63 µM. Also, the GI50 in experiment [7] was 1.36 µM; in experiment [8] it was 0.913 µM; in experiment [9], 1.15 µM; in [10], 2.66 µM. Also, the TGI was more than 100 µM in experiment [1]; 4.06 µM in [2]; more than 100 µM in experiment [3]; more than 100 µM in experiment [4]; more than 100 µM in [5]; more than 100 µM in experiment [6]. For the same molecule, the TGI in experiment [7] was 32.8 µM; in [8], 18.6 µM; in experiment [9] it was 31.6 µM; in [10], more than 100 µM.

As for `COc1cccc2c1C(=O)c1c(O)c3c(c(O)c1C2=O)C[C@@](O)(C(=O)CO)CC3OC1CC(N)C(OC2CCCCO2)C(C)O1` (stereo partly drawn), the GI50 is 0.0409 µM in experiment [1]; 0.0709 µM in [2]; 0.0457 µM in experiment [4]; 0.018 µM in experiment [5]; 0.0291 µM in experiment [7]; 0.00812 µM in experiment [8]. For the same molecule, in experiment [10], the GI50 was 0.0368 µM. Moreover, the TGI in experiment [1] was 0.282 µM and 1.72 µM; in experiment [3], 1.08 µM; in experiment [6], 0.273 µM; in [7], 0.179 µM and 1.08 µM; in experiment [9], 0.363 µM.

Turning to `CC1(C)C(N2CCOCC2)CS1(=O)=O` (stereo not drawn), the TGI in [1], in [2], in experiment [3], in experiment [4], in [5] and in experiment [6] was more than 10 µM each time. Further, the TGI in [7], in experiment [8], in [9] and in [10] was more than 10 µM in each case.

With `COc1cc(C(=O)/C=C/c2cc(-c3ccc4c(c3)OCO4)n[nH]2)cc(OC)c1OC`, the GI50 in [1] is 1.59 µM; in experiment [2], 1.71 µM; in [3], 1.06 µM; in experiment [4], 2.02 µM; in experiment [5], 2.35 µM; in experiment [6], 2.08 µM. Besides, the GI50 was 3.32 µM in [7], 1.21 µM in experiment [8], 1.51 µM in [9] and 2.9 µM in [10]. For the same molecule, the TGI stood at 3.41 µM in [1]; 3.5 µM in [2]; 2.88 µM in experiment [3]; 4.07 µM in experiment [4]; 6.37 µM in experiment [5]; 6.23 µM in experiment [6]. The TGI in experiment [7] was found to be 13.3 µM; in experiment [8], 2.49 µM; in experiment [9], 4.02 µM; in experiment [10] it was 7.17 µM.

For `O=S(=O)(NC1=NCCN1C(=S)SN1CCn2c1nsc2=S)c1ccc(Oc2ccccc2)cc1`, the GI50 in experiment [1] is 26.2 µM; in experiment [2], more than 100 µM; in experiment [3], 25.7 µM; in [4], 41.7 µM; in experiment [5], more than 100 µM; in experiment [6], 37.8 µM. The GI50 in experiment [7] is 32.3 µM; in experiment [8] it was more than 100 µM; in experiment [9], 56 µM; in experiment [10], 64.4 µM. Moreover, the TGI in experiment [1] is 69 µM; in [2] it was more than 100 µM; in experiment [3], more than 100 µM; in [4], more than 100 µM; in experiment [5], more than 100 µM; in experiment [6], more than 100 µM. In addition, the TGI in experiment [7], in experiment [8], in experiment [9] and in experiment [10] was more than 100 µM in each case.

Turning to `CC(=Nc1ccc(N(C)C)cc1)c1ccccc1`, the TGI in [1] is 40.8 µM; in [2] it was 32.2 µM; in experiment [3], 46.9 µM; in experiment [4], more than 100 µM; in experiment [5] it was more than 100 µM; in [6] it was 35.4 µM. Besides, the TGI in [7] is 29.7 µM; in experiment [8], more than 100 µM; in experiment [9], 99.4 µM; in experiment [10], 40.1 µM.

Consider `Cc1ccc(N(C=O)c2c([N+](=O)[O-])cc([N+](=O)[O-])c3c2=[N+]([O-])CN=3)cc1`, for which the TGI was 48.2 µM in experiment [1]; 73.6 µM in experiment [2]; 57.7 µM in [3]; 43.3 µM in [4]; more than 100 µM in experiment [5]; 54.5 µM in experiment [6]. Besides, the TGI in experiment [7] was determined as 30.1 µM; in [8], 79.9 µM; in experiment [9], 47.3 µM; in experiment [10], 78.7 µM.

Take `O=C(O)CCC(c1ccccc1)(c1ccccc1)c1ccccc1`: the GI50 in experiment [1] was 55.3 µM. Besides, the TGI is more than 100 µM in experiment [1]; more than 69.6 µM in experiment [2]; more than 71 µM in experiment [3]; more than 100 µM in [4]; more than 100 µM in experiment [5]; more than 100 µM in experiment [6]. In addition, the TGI in experiment [7], in experiment [8], in [9] and in experiment [10] was more than 100 µM in each case.
